Test results: patent publication US6737383B1, “Herbicidal oxadiazolidines” (priority 1999, dated 2004)

Tests used:
smallflower flatsedge = assay: Test B flood test smallflower flatsedge; assay type: in vivo, Cyperus difformis
Summary of the method: (§1)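 Flood test on plants grown to the 2-leaf stage; treated plants kept in greenhouse twelve to sixteen days, then visually rated against controls on a 0 (no effect) to 10 (complete control) scale.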

duck salad = assay: Test B flood test duck salad; assay type: in vivo, Heteranthera limosa
Summary of the method: as §1

velvetleaf = assay: Test B pre/postemergence velvetleaf; assay type: in vivo, Abutilon theophrasti; settings: for Plant response rating, Velvetleaf: Rate 250 g/ha
Summary of the method: (§2)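 Herbicidal effect was estimated by eye on a ten-point control scale after plants spent twelve to sixteen days in a greenhouse following soil or foliar treatment. Foliar sprays targeted plants at one to four leaves; all doses were formulated in a non-phytotoxic solvent with surfactant.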

blackgrass = assay: Test B pre/postemergence blackgrass; assay type: in vivo, Alopecurus myosuroides
Summary of the method: as §2

cocklebur = assay: Test B pre/postemergence cocklebur; assay type: in vivo, Xanthium strumarium
Summary of the method: as §2

bamyardgrass = assay: Test B flood test barnyardgrass; assay type: in vivo, Echinochloa crus-galli
Summary of the method: as §1

surinam grass = assay: Test B pre/postemergence surinam grass; assay type: in vivo, Brachiaria decumbens
Summary of the method: as §2

wild oat = assay: Test B pre/postemergence wild oat; assay type: in vivo, Avena fatua; settings: for Plant response rating, Wild oats: Rate 250 g/ha
Summary of the method: as §2

morningglory = assay: Test B pre/postemergence morningglory; assay type: in vivo, Ipomoea hederacea
Summary of the method: as §2

corn = assay: Test B pre/postemergence corn; assay type: in vivo, Zea mays
Summary of the method: as §2

crabgrass = assay: Test B pre/postemergence crabgrass; assay type: in vivo, Digitaria sanguinalis
Summary of the method: as §2

soybean = assay: Test B pre/postemergence soybean; assay type: in vivo, Glycine max
Summary of the method: as §2

wheat = assay: Test B pre/postemergence wheat; assay type: in vivo, Triticum aestivum; settings: for Plant response rating, Wheat: Rate 250 g/ha
Summary of the method: as §2

bedstraw = assay: Test B pre/postemergence bedstraw; assay type: in vivo, Galium aparine
Summary of the method: as §2

giant foxtail = assay: Test B pre/postemergence giant foxtail; assay type: in vivo, Setaria faberii
Summary of the method: as §2

rape = assay: Test B pre/postemergence rape; assay type: in vivo, Brassica napus
Summary of the method: as §2

[1] = Postemergence (flood test species), Rate 125 g/ha, scale of 0 to 10 where 0 is no effect and 10 is complete control
[2] = Rate 62 g/ha, Postemergence section, flood test species, scale of 0 to 10 where 0 is no effect and 10 is complete control
[3] = Rate 250 g/ha, headed Pre-emergence (flood test species), scale 0 to 10 (0 no effect, 10 complete control)
[4] = Rate 500 g/ha, headed Pre-emergence (flood test species), scale 0 to 10 (0 no effect, 10 complete control)
[5] = Rate 500 g/ha, listed under Postemergence (flood test species), scale 0 to 10, 0 no effect, 10 complete control
[6] = Rate 2000 g/ha, Pre-emergence (as headed), scale 0 to 10
[7] = Rate 1000 g/ha, Pre-emergence (as headed), scale 0 to 10
[8] = flood test, listed under Postemergence, Rate 250 g/ha, scale 0 to 10, 0 no effect, 10 complete control
[9] = Postemergence, Rate 125 g/ha, scale of 0 to 10 where 0 is no effect and 10 is complete control
[10] = Preemergence, Rate 62 g/ha, scale 0 to 10 (0 no effect, 10 complete control)
[11] = Preemergence, Rate 125 g/ha, 0 is no effect, 10 is complete control
[12] = Preemergence, scale of 0 to 10 where 0 is no effect and 10 is complete control
[13] = Preemergence, Rate 500 g/ha, scale 0 to 10 (0 no effect, 10 complete control)
[14] = Rate 62 g/ha, Postemergence, scale of 0 to 10 where 0 is no effect and 10 is complete control
[15] = Postemergence, scale 0 to 10, 0 is no effect, 10 is complete control
[16] = Rate 500 g/ha, Postemergence, scale 0 to 10, 0 no effect, 10 complete control
[17] = Postemergence, Rate 250 g/ha, scale 0 to 10, 0 no effect, 10 complete control
[18] = Preemergence, Rate 125 g/ha, scale 0 to 10 (0 no effect, 10 complete control)
[19] = Preemergence, Rate 250 g/ha, scale of 0 to 10 where 0 is no effect and 10 is complete control
[20] = Postemergence, Rate 62 g/ha, scale 0 to 10, 0 is no effect, 10 is complete control
[21] = Rate 125 g/ha, Postemergence, scale 0 to 10, 0 no effect, 10 complete control

## CC(C)N(C(=O)n1oc(=O)n(C(C)C)c1=O)c1ccc(F)cc1F [Compound 109]
Smallflower flatsedge; [1]
  S. Flatsedge plant response rating: 0
Smallflower flatsedge; Pre-emergence, Rate 1000 g/ha, scale 0 to 10 (0 no effect, 10 complete control)
  S. Flatsedge plant response rating: 8
Smallflower flatsedge; [2]
  S. Flatsedge plant response rating: 0
Smallflower flatsedge; Rate 250 g/ha, Postemergence (flood test), scale 0 to 10, 0 is no effect, 10 is complete control
  Plant response rating, S. Flatsedge: 0
Smallflower flatsedge; [3]
  S. Flatsedge plant response rating: 0
Smallflower flatsedge; [4]
  Plant response rating, S. Flatsedge: 0
Smallflower flatsedge; [5]
  S. Flatsedge plant response rating: 0
Smallflower flatsedge; [6]
  S. Flatsedge plant response rating: 8
Duck salad; [1]
  Ducksalad plant response rating: 0
Duck salad; [2]
  Ducksalad plant response rating: 0
Duck salad; [3]
  Ducksalad plant response rating: 0
Duck salad; [4]
  Plant response rating, Ducksalad: 0
Duck salad; [5]
  Ducksalad plant response rating: 0
Duck salad; [7]
  Ducksalad plant response rating: 1
Duck salad; [6]
  Ducksalad plant response rating: 6
Duck salad; [8]
  Ducksalad plant response rating: 0
velvetleaf; [9]
  Velvetleaf plant response rating: 2
velvetleaf; [10]
  Velvetleaf plant response rating: 5
velvetleaf; [11]
  Velvetleaf plant response rating (0 to 10 scale): 7
velvetleaf; [12]
  Plant response rating, Velvetleaf: 10
velvetleaf; [13]
  Velvetleaf plant response rating: 10
velvetleaf; [14]
  Velvetleaf plant response rating: 0
velvetleaf; [15]
  Plant response rating, Velvetleaf: 6
velvetleaf; [16]
  Velvetleaf plant response rating: 6
blackgrass; [9]
  Blackgrass plant response rating: 8
blackgrass; [17]
  Blackgrass plant response rating: 8
blackgrass; [10]
  Blackgrass plant response rating: 8
blackgrass; [18]
  Plant response rating, Blackgrass: 8
blackgrass; [19]
  Plant response rating, Blackgrass: 10
blackgrass; [13]
  Blackgrass plant response rating: 10
blackgrass; [14]
  Blackgrass plant response rating: 7
blackgrass; [16]
  Blackgrass plant response rating: 8
cocklebur; [9]
  Cocklebur plant response rating: 3
cocklebur; [17]
  Cocklebur plant response rating: 4
cocklebur; [10]
  Cocklebur plant response rating: 0
cocklebur; [18]
  Plant response rating, Cocklebur: 0
cocklebur; [19]
  Plant response rating, Cocklebur: 0
cocklebur; [13]
  Cocklebur plant response rating: 5
cocklebur; [14]
  Cocklebur plant response rating: 2
cocklebur; [16]
  Cocklebur plant response rating: 5
bamyardgrass; [20]
  Barnyardgrass plant response rating: 0
bamyardgrass; Rate 125 g/ha, Postemergence section (flood test species), scale 0 to 10, 0 no effect, 10 complete control
  Barnyardgrass plant response rating: 0
bamyardgrass; [3]
  Barnyardgrass plant response rating: 0
bamyardgrass; [4]
  Plant response rating, Barnyardgrass: 0
bamyardgrass; [5]
  Barnyardgrass plant response rating: 0
bamyardgrass; [7]
  Barnyardgrass plant response rating: 8
bamyardgrass; Rate 2000 g/ha, Pre-emergence (as headed), scale 0 to 10, 0 no effect, 10 complete control
  Barnyardgrass plant response rating: 9
bamyardgrass; [8]
  Barnyardgrass plant response rating: 0
Surinam grass; [20]
  B. signalgrass plant response rating: 7
Surinam grass; [17]
  B. signalgrass plant response rating: 8
Surinam grass; [10]
  B. signalgrass plant response rating: 9
Surinam grass; [18]
  Plant response rating, B. signalgrass: 9
Surinam grass; [19]
  Plant response rating, B. signalgrass: 10
Surinam grass; [13]
  B. signalgrass plant response rating: 10
Surinam grass; [21]
  B. signalgrass plant response rating: 7
Surinam grass; Rate 500 g/ha, Postemergence, scale of 0 to 10 where 0 is no effect and 10 is complete control
  B. signalgrass plant response rating: 8
Wild oat; [9]
  Wild oats plant response rating: 0
Wild oat; [10]
  Wild oats plant response rating: 8
Wild oat; [11]
  Wild oats plant response rating (0 to 10 scale): 10
Wild oat; [12]
  Plant response rating, Wild oats: 10
Wild oat; [13]
  Wild oats plant response rating: 10
Wild oat; [14]
  Wild oats plant response rating: 0
Wild oat; [15]
  Plant response rating, Wild oats: 4
Wild oat; [16]
  Wild oats plant response rating: 7
morningglory; [9]
  Morningglory plant response rating: 3
morningglory; [17]
  Morningglory plant response rating: 5
morningglory; [10]
  Morningglory plant response rating: 0
morningglory; [18]
  Plant response rating, Morningglory: 5
morningglory; [19]
  Plant response rating, Morningglory: 6
morningglory; [13]
  Morningglory plant response rating: 10
morningglory; [14]
  Morningglory plant response rating: 3
morningglory; [16]
  Morningglory plant response rating: 5
corn; [9]
  Corn plant response rating: 0
corn; [17]
  Corn plant response rating: 3
corn; [10]
  Corn plant response rating: 0
corn; [18]
  Plant response rating, Corn: 3
corn; [19]
  Plant response rating, Corn: 7
corn; [13]
  Corn plant response rating: 9
corn; [14]
  Corn plant response rating: 0
corn; [16]
  Corn plant response rating: 5
crabgrass; [9]
  Crabgrass plant response rating: 9
crabgrass; [17]
  Crabgrass plant response rating: 9
crabgrass; [10]
  Crabgrass plant response rating: 10
crabgrass; [18]
  Plant response rating, Crabgrass: 10
crabgrass; [19]
  Plant response rating, Crabgrass: 10
crabgrass; [13]
  Crabgrass plant response rating: 10
crabgrass; [14]
  Crabgrass plant response rating: 8
crabgrass; [16]
  Crabgrass plant response rating: 9
soybean; [9]
  Soybean plant response rating: 6
soybean; [10]
  Soybean plant response rating: 0
soybean; [18]
  Plant response rating, Soybean: 7
soybean; [19]
  Plant response rating, Soybean: 8
soybean; [13]
  Soybean plant response rating: 9
soybean; [14]
  Soybean plant response rating: 4
soybean; Rate 250 g/ha, Postemergence, scale 0 to 10, 0 is no effect, 10 is complete control
  Plant response rating, Soybean: 7
soybean; [16]
  Soybean plant response rating: 7
wheat; [9]
  Wheat plant response rating: 0
wheat; [10]
  Wheat plant response rating: 0
wheat; [11]
  Wheat plant response rating (0 to 10 scale): 5
wheat; [12]
  Plant response rating, Wheat: 9
wheat; [13]
  Wheat plant response rating: 10
wheat; [14]
  Wheat plant response rating: 0
wheat; [15]
  Plant response rating, Wheat: 5
wheat; [16]
  Wheat plant response rating: 6
bedstraw; [20]
  Bedstraw plant response rating: 6
bedstraw; [17]
  Bedstraw plant response rating: 9
bedstraw; [10]
  Bedstraw plant response rating: 8
bedstraw; [18]
  Plant response rating, Bedstraw: 10
bedstraw; [19]
  Plant response rating, Bedstraw: 10
bedstraw; [13]
  Bedstraw plant response rating: 10
bedstraw; [21]
  Bedstraw plant response rating: 8
Giant foxtail; [9]
  Giant foxtail plant response rating: 9
Giant foxtail; [17]
  Giant foxtail plant response rating: 9
Giant foxtail; [10]
  Giant foxtail plant response rating: 10
Giant foxtail; [18]
  Plant response rating, Giant foxtail: 10
Giant foxtail; [19]
  Plant response rating, Giant foxtail: 10
Giant foxtail; [13]
  Giant foxtail plant response rating: 10
Giant foxtail; [14]
  Giant foxtail plant response rating: 8
Giant foxtail; [16]
  Giant foxtail plant response rating: 9
rape; [9]
  Rape plant response rating: 3
rape; [17]
  Rape plant response rating: 4
rape; [10]
  Rape plant response rating: 7
rape; [18]
  Plant response rating, Rape: 8
rape; [19]
  Plant response rating, Rape: 9
rape; [13]
  Rape plant response rating: 10
rape; [14]
  Rape plant response rating: 3
rape; [16]
  Rape plant response rating: 6
